Experimental data: US8835124B2, “Method for treating cancer with agents that bind phosphorylated CDC27” (The Nemours Foundation, priority 2011, dated 2014)

System: DAOY cells
Experiment: LDH release cytotoxicity assay
Assay type: cell-based, human
Conditions: DAOY cells treated for 16 hours
Procedure: Lactate dehydrogenase (LDH) levels as a measure of cell death were determined using the Non-radioactive Cytotoxicity kit (Promega, Madison, Wis.) according to manufacturer's instructions. […] Cell debris was removed by centrifugation. Viable cell LDH was collected from cells lysed by freezing for 15 minutes at −70° C. followed by thawing at 37° C. The medium was collected and cleared from cell debris by centrifugation. The relative release of LDH was determined as the ratio of released LDH versus total LDH from viable cells.
Data represent mean±SEM of three independent experiments.

COc1cc(C=CC(C)=O)ccc1O [half-curcumin, 4-(4-hydroxy-3-methoxyphenyl)-3-buten-2-one]
cell death (LDH release): failed to induce cell death
